In patent publication US12168763B2, “Microorganisms and methods for reducing bacterial contamination” (Melio Peptide Systems Inc., priority 2020, dated 2024):
Entries after “also recorded” stand apart in the source; their conditions may differ. Where no end group is shown, it is not given here.

Columns and labels:
[1] = system: P. pentosaceus NCCB 31016; experiment: Soft-agar overlay assay of S. cerevisiae M2 strain expressing pediocin PA-1 variants; settings: S. cerevisiae M2 transformants; compared to wild-type pediocin PA-1
[2] = system: L. delbrueckii CCUG 34222T; experiment: as above; settings: S. cerevisiae M2 transformants; compared to wild-type pediocin PA-1
L. fermentum NCCB 46038 = experiment: Soft-agar overlay assay of S. cerevisiae BY4742 secreting persulcatusin variants from pHVXU plasmids; settings: for Increase in Activity: random mutagenesis clones of persulcatusin, increase of growth inhibition zones; for Change in activity: alanine scanning of persulcatusin, relative to wild-type, soft-agar overlay

Row | Substance | Growth inhibition zone (halo) of P. pentosaceus [1] | Growth inhibition zone (halo) of L. delbrueckii [2] | Increase in Activity (L. fermentum NCCB 46038) | Change in activity (L. fermentum NCCB 46038)
1 | Engineered pediocin PA-1 with [pediocin PA-1 G19A, Engineered pediocin PA-1 with [G19A]] | Growth inhibition zones of P. pentosaceus were observable |  |  | 
2 | Engineered pediocin PA-1 with [pediocin PA-1 K1A/K20A, Engineered pediocin PA-1 with [K1A/K20A]] | Growth inhibition zones of P. pentosaceus and L. delbrueckii were observable | Growth inhibition zones of P. pentosaceus and L. delbrueckii were observable |  | 
3 | Engineered pediocin PA-1 with [S13A] (KYYGNGVTCGKHACSVDWGKATTCIINNGAMAWATGGHQGNHKC; ends and bridges not checked; cysteine pairing not given here) [pediocin PA-1 S13A] | Growth inhibition zones of P. pentosaceus were observable | Growth inhibition zones of L. delbrueckii were observable |  | 
4 | Engineered pediocin PA-1 with [pediocin PA-1 K1T, Engineered pediocin PA-1 with [K1T]] |  | slightly bigger halo than wild-type pediocin PA-1; also recorded: Growth inhibition zones were observable |  | 
5 | Engineered pediocin PA-1 with [pediocin PA-1 K1A/S15A, Engineered pediocin PA-1 with [K1A/S15A]] | Growth inhibition zones of P. pentosaceus and L. delbrueckii were observable | Growth inhibition zones of P. pentosaceus and L. delbrueckii were observable |  | 
6 | Engineered pediocin PA-1 with [pediocin PA-1 K1A/S13A, Engineered pediocin PA-1 with [K1A/S13A]] | Growth inhibition zones of P. pentosaceus and L. delbrueckii were observable | Growth inhibition zones of P. pentosaceus and L. delbrueckii were observable |  | 
7 | Engineered pediocin PA-1 with [pediocin PA-1 K1A, Engineered pediocin PA-1 with [K1A]] | largest halo | largest halo |  | 
8 | Engineered pediocin PA-1 with [S15A] (KYYGNGVTCGKHSCAVDWGKATTCIINNGAMAWATGGHQGNHKC; ends and bridges not checked; cysteine pairing not given here) [pediocin PA-1 S15A] | Growth inhibition zones of P. pentosaceus were observable | Growth inhibition zones of L. delbrueckii were observable |  | 
9 | Engineered pediocin PA-1 with [pediocin PA-1 K1A/T22A, Engineered pediocin PA-1 with [K1A/T22A]] | largest halo |  |  | 
10 | Engineered persulcatusin with [Mutation S7-140-2, Engineered persulcatusin with [R13S]] |  |  | + | 
11 | Engineered pediocin PA-1 with [pediocin PA-1 T22A, Engineered pediocin PA-1 with [T22A]] | Growth inhibition zones of P. pentosaceus were observable |  |  | 
12 | C4A: persulcatusin (SEQ ID NO: 1) alanine-scan variant C4A (GFGAPFNQGACHRHCRSIGRRGGYCAGLFKQTCTCYSR; listed as Ixodes persulcatus) [Mutation C4A] |  |  |  | −
13 | G27A: persulcatusin (SEQ ID NO: 1) alanine-scan variant G27A (GFGCPFNQGACHRHCRSIGRRGGYCAALFKQTCTCYSR; listed as Ixodes persulcatus) [Mutation G27A] |  |  |  | −
14 | Engineered persulcatusin with [Mutation R38A, Engineered persulcatusin with [R38A]] |  |  |  | +
15 | Engineered persulcatusin with [Mutation S7-192-22, Engineered persulcatusin with [F6L/N7D/H14Q]] |  |  | ++ | 
